From the supplement of paper PMC11451515

Tested on: NOMO1
Test: cell viability relative to DMSO control; higher = less cytotoxic
Details: 48 h
Procedure, shortened: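 Three leukemia lines were tested: NOMO1 and SEM at 500 cells/well and P12-Ichikawa at 1000 cells/well. Each was adapted for at least four passages in each medium and seeded in 5 μl in 1536-well plates, and library compounds in DMSO were pin-dosed from 47 μM to 0.79 nM in 11 threefold steps. After 48 h at 37°C, CellTiter-Glo One luminescence was read. Viability is a percentage relative to DMSO wells on each plate, with cell-free wells as background.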

[1] = HPLM + 10% dialyzed FBS, 0.000781 µM
[2] = HPLM + 10% dialyzed FBS, 0.00234 µM
[3] = HPLM + 10% dialyzed FBS, 0.00702 µM
[4] = HPLM + 10% dialyzed FBS, 0.0211 µM
[5] = HPLM + 10% dialyzed FBS, 0.0632 µM
[6] = HPLM + 10% dialyzed FBS, 0.19 µM
[7] = HPLM + 10% dialyzed FBS, 0.569 µM
[8] = HPLM + 10% dialyzed FBS, 1.71 µM
[9] = HPLM + 10% dialyzed FBS, 5.12 µM
[10] = HPLM + 10% dialyzed FBS, 15.4 µM
[11] = HPLM + 10% dialyzed FBS, 46.1 µM
[12] = RPMI 5 mM glucose + 10% FBS, 0.000781 µM
[13] = RPMI 5 mM glucose + 10% FBS, 0.00234 µM
[14] = RPMI 5 mM glucose + 10% FBS, 0.00702 µM
[15] = RPMI 5 mM glucose + 10% FBS, 0.0211 µM
[16] = RPMI 5 mM glucose + 10% FBS, 0.0632 µM
[17] = RPMI 5 mM glucose + 10% FBS, 0.19 µM
[18] = RPMI 5 mM glucose + 10% FBS, 0.569 µM
[19] = RPMI 5 mM glucose + 10% FBS, 1.71 µM
[20] = RPMI 5 mM glucose + 10% FBS, 5.12 µM
[21] = RPMI 5 mM glucose + 10% FBS, 15.4 µM
[22] = RPMI 5 mM glucose + 10% FBS, 46.1 µM
[23] = RPMI 5 mM glucose + 10% dialyzed FBS, 0.000781 µM
[24] = RPMI 5 mM glucose + 10% dialyzed FBS, 0.00234 µM
[25] = RPMI 5 mM glucose + 10% dialyzed FBS, 0.00702 µM
[26] = RPMI 5 mM glucose + 10% dialyzed FBS, 0.0211 µM
[27] = RPMI 5 mM glucose + 10% dialyzed FBS, 0.0632 µM
[28] = RPMI 5 mM glucose + 10% dialyzed FBS, 0.19 µM
[29] = RPMI 5 mM glucose + 10% dialyzed FBS, 0.569 µM
[30] = RPMI 5 mM glucose + 10% dialyzed FBS, 1.71 µM
[31] = RPMI 5 mM glucose + 10% dialyzed FBS, 5.12 µM
[32] = RPMI 5 mM glucose + 10% dialyzed FBS, 15.4 µM
[33] = RPMI 5 mM glucose + 10% dialyzed FBS, 46.1 µM

Structure (SMILES)	cell viability [1] [%]	cell viability [2] [%]	cell viability [3] [%]	cell viability [4] [%]	cell viability [5] [%]	cell viability [6] [%]	cell viability [7] [%]	cell viability [8] [%]	cell viability [9] [%]	cell viability [10] [%]	cell viability [11] [%]	cell viability [12] [%]	cell viability [13] [%]	cell viability [14] [%]	cell viability [15] [%]	cell viability [16] [%]	cell viability [17] [%]	cell viability [18] [%]	cell viability [19] [%]	cell viability [20] [%]	cell viability [21] [%]	cell viability [22] [%]	cell viability [23] [%]	cell viability [24] [%]	cell viability [25] [%]	cell viability [26] [%]	cell viability [27] [%]	cell viability [28] [%]	cell viability [29] [%]	cell viability [30] [%]	cell viability [31] [%]	cell viability [32] [%]	cell viability [33] [%]
Cc1cc(O)c2c3c4c(cc(O)c13)C(C)(C)C(=O)c1c(O)cc(O)c(c1-4)C2=O	125	121	107	115	109	112	115	99.2	114	101	7.32	106	109	109	101	88.6	101	90.5	104	101	85.2	26.1	89.5	95.2	118	98.9	109	86.5	107	107	112	114	36.5
C=C(C)[C@@H]1CC[C@]2(C)CC[C@]3(C)[C@H](CC[C@@H]4[C@@]5(C)CC[C@H](O)C(C)(C)[C@@H]5CC[C@]43C)[C@@H]12	90.7	95.3	104	123	115	127	109	119	134	117	131	106	111	114	126	121	127	121	115	124	130	115	113	106	111	106	100	113	113	123	123	124	115
Cc1[nH]c(/C=C2\C(=O)Nc3ccc([S+](=O)([O-])N(C)c4cccc(Cl)c4)cc32)c(C)c1C(=O)N1CCN(C)CC1	114	131	123	103	119	99.2	115	120	109	103	10.1																						
NC(=O)N1c2ccccc2CC(=O)c2ccccc21	115	124	121	126	123	136	128	137	126	143	163																						
Cc1ccc(NC(=O)C2(c3ccc4c(c3)OC(F)(F)O4)CC2)nc1-c1cccc(C(=O)O)c1	107	122	95.4	102	98.8	53.4	19	9.04	7.86	6.36	4.68	97.6	93.2	99.6	96.9	91.6	43.4	17.4	10.2	7.42	6.77	4.07	99.8	99.8	92.1	110	102	56.8	27	11.4	8.3	7.38	4.48
COc1cc2nccc(Oc3ccc(NC(=O)Nc4cc(C)on4)c(Cl)c3)c2cc1OC	113	117	117	138	108	116	121	130	115	129	87.8												124	124	119	114	112	115	111	136	112	120	70.9
CCOC(=O)C/1=C(C)/NC(=S)NC1C2=CC=CC(=C2)O (stereo not drawn)												103	124	117	128	123	47.3	22.7	24.3	19.3	22.3	17.1	117	120	133	126	132	99.5	33.2	32.1	22.9	26.4	23.3
C[C@H]([C@H](O)CCC(C)(C)O)[C@H]1CC[C@@]2(O)C/3=C/C(=O)[C@@H]4C[C@@H](O)[C@@H](O)C[C@]4(C)[C@H]3CC[C@]12C												112	115	118	107	106	112	121	104	119	109	104	122	127	125	137	112	121	123	131	125	131	117
CCC1=C[C@@H]2CN(C1)Cc1c([nH]c3ccccc13)[C@@](C(=O)OC)(c1cc3c(cc1OC)N(C)[C@H]1[C@@](O)(C(=O)OC)[C@H](OC(C)=O)[C@]4(CC)C=CCN5CC[C@]31[C@@H]54)C2	127	119	108	96.9	49.3	34.5	38	34.5	38.4	47	27.4	106	98.3	98.9	99.3	70.5	20.6	21.1	23.4	22.4	29.2	18.9	120	114	114	107	86.5	18.8	25.7	26.5	29	27.8	20.5
O=C1Nc2ccccc2/C1=C1\Nc2ccccc2C1=O	105	116	112	112	99.1	97.7	110	96.4	112	102	90.5	93	87.4	97.6	103	103	94.7	93.7	88.7	96.2	85.6	86.9	98.2	95.9	109	100	88.1	93.9	89.4	94.3	89.4	89.1	84.9
CC#C[C@]1(O)CC[C@H]2[C@@H]/3CCC/4=C/C(=O)CCC4=C3[C@H](C[C@]12C)C5=CC=C(C=C5)N(C)C	95.5	99.9	101	102	103	96.1	102	94.8	79.3	9.1	6.71	83.5	95.2	91.3	86.2	90	88.1	93.4	95.5	73.2	9.23	5.91	90.7	81.5	88.7	97.2	110	90.3	93	85.4	70.9	9.38	6.16
CCOC(=O)Nc1ccc(NCc2ccc(F)cc2)cc1N	112	120	126	129	116	110	121	107	99.1	65.1	31.5	107	112	117	116	117	118	112	113	105	94.3	24.6	115	133	119	119	115	123	110	107	107	89.8	33.9
O=C1\C=C(/OC2=C1C=CC=C2C3=CC=CC=C3)N4CCOCC4	95.4	99.2	99.9	90.4	91.9	90.4	86.7	63.9	82.5	66.5	75.6	82.4	88	89.1	84.7	79.9	83	81.7	77	82.4	80.9	76	75.2	86.5	81.7	83.9	87.4	79.7	82.3	66.1	89.8	79.1	88.1
COc1cc(N2CCC(O)CC2)ccc1Nc1cc(Nc2ccccc2[S+](=O)([O-])C(C)C)c2cc[nH]c2n1	105	131	64.6	53.7	96.5	96.3	89	79	74.1	62.1	65.6	91.7	92.6	84.6	84.9	98.7	84.4	92.4	86.6	87.6	74	71.9	90.4	83.4	97.3	100	101	87.8	63.4	84.7	87.5	67	67.1
CC(C)C[C@H](CN)CC(=O)O	105	108	122	109	98.1	96.1	108	117	101	79.6	91.7	90.3	95.6	102	97.8	87.9	89.9	99.3	93.6	91.5	90.3	83.8	97.3	100	105	106	95.8	97.6	99.3	89.3	99.2	92.1	90
C[C@@H]1C[C@H]2[C@@H]3\C=C(C)/C4=C/C5=C(C[C@]4(C)[C@H]3[C@@H](O)C[C@]2(C)[C@@]1(O)C(=O)COC(C)=O)C=N[N]5C6=CC=CC=C6	116	123	114	113	123	106	106	106	104	108	90												127	121	110	122	125	114	109	108	104	109	100
CC(=O)N1CCN(c2ccc(OCc3nn(C)c(C)c3-c3cccc4c(CCCOc5cc(C)c(Cl)c(C)c5)c(C(=O)O)n(Cc5cccnc5)c34)cc2)CC1	111	108	132	114	126	130	120	130	131	120	84.6	111	115	124	150	130	136	146	126	120	134	94.6	115	112	122	135	135	133	139	142	156	137	124
